Experimental data reported in PMC7997578, “Design, Synthesis, Dynamic Docking, Biochemical Characterization, and in Vivo Pharmacokinetics Studies of Novel Topoisomerase II Poisons with Promising Antiproliferative Activity” (Journal of Medicinal Chemistry, 2020).
Converted amounts (≈) assume the structure as drawn. Read-outs that look alike come from different tables or passages of the source.

Assays:
[1] = biological target: T1, human topoIIα (Homo sapiens, UniProt P11388); experiment: topoII decatenation assay (Inspiralis); type: biochemical; details: human topoIIα decatenation assay; mean ± SD of two independent experiments; read-out: IC50
T1 construct: purchased Inspiralis
T1 sequence (P11388 whole entry): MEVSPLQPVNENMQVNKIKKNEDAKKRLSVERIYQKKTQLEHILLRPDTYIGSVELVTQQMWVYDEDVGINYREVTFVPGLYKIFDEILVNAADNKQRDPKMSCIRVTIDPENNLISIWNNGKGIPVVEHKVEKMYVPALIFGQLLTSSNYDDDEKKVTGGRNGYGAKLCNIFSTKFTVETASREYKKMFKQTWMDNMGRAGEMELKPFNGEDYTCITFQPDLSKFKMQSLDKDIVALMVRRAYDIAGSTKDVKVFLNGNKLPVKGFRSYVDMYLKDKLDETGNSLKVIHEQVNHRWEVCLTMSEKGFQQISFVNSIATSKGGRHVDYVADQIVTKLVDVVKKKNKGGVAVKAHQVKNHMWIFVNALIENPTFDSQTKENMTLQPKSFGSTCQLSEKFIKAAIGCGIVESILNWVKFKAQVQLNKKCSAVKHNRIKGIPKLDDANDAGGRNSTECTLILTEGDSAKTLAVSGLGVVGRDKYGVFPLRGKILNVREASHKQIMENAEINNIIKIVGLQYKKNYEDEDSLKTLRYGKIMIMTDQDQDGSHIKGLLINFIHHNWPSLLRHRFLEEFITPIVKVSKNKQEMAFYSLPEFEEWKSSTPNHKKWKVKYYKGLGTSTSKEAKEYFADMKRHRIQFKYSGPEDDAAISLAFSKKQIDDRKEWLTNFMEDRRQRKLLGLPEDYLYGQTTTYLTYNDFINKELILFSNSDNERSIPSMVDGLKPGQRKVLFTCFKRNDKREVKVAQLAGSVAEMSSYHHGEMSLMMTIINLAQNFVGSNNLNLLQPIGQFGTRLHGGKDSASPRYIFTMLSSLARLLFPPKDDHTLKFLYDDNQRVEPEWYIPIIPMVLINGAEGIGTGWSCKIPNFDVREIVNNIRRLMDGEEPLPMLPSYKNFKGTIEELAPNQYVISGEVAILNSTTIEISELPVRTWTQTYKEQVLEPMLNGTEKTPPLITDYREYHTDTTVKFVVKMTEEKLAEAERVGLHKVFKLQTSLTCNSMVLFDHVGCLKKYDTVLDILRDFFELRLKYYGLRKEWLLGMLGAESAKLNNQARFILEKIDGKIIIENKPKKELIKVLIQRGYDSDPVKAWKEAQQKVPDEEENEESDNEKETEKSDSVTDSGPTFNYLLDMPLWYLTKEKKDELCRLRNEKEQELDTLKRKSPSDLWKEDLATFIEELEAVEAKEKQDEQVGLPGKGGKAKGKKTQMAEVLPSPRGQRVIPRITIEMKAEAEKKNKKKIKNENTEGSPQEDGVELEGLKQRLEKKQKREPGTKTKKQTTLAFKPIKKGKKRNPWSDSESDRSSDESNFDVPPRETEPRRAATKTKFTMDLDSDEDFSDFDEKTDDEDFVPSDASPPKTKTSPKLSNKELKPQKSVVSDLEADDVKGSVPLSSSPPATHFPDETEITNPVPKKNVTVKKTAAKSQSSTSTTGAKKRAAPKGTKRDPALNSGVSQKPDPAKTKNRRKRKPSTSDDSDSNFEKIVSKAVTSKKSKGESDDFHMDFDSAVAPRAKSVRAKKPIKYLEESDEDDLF
Procedure: We measured the inhibitor activity of our new compounds against human topoIIα, using a topoII decatenation assay (Table 1).
The activity of topoIIα was measured using a decatenation assay (Inspiralis) following the manufacturer’s instructions. Compounds were dissolved in DMSO and used at a concentration ranging from 200 to 1 μM. Final DMSO concentration in the assay was ≤1%. Reaction mixtures were incubated for 30 min at 37 °C and terminated with STEB buffer (40% (w/v) sucrose, 100 mM Tris-HCl, pH 8, 1 mM EDTA, 0.5 mg/mL bromophenol blue). Reaction products were resolved by electrophoresis in 1% agarose gels containing SYBR Safe DNA stain (Invitrogen), scanned, and quantified using the ChemiDoc system (BioRad). IC50 values were obtained with GraphPad Prism software (version 5.03) using the band intensities of the dose–response gels. Values are reported as the mean ± SD of two independent experiments.

[2] = system: DU145 cells; experiment: cell viability MTT assay, DU145; type: cell-based, human; details: Homo sapiens, DU-145, DU145 prostate cancer cells, mean ± SD of two experiments, read-out: DU145 antiproliferative activity IC50
Procedure: (§1) The antiproliferative activity of all compounds was evaluated in (i) DU145, an androgen-independent prostate cancer cell line; (ii) HeLa, a cervical cancer cell line; and (iii) A549, a lung adenocarcinoma cell line (Table 1). […] Undoubtedly, this preliminary cytotoxicity data will need further characterization, also in relation to the in vitro activity of these compounds.
(§2) Human cancer cell lines A549 (lung adenocarcinoma, ATCC CCL-185), DU-145 (androgen-independent prostate cancer, ATCC HTB-81), and HeLa (cervical carcinoma, ATCC CCL-2) were obtained from ATCC. Cells were routinely grown in minimal essential medium containing Eagle’s salts and L-glutamine supplemented with 10% heat-inactivated FBS in a humidified atmosphere of 5% CO2 at 37 °C. To assess the antiproliferative activity of the compounds, cells were seeded at a density of 2500 cells/well (HeLa) or 5000 cells/well (A549, DU-145) in 96-well plates, and cell viability was measured using the MTT assay as described previously.[39] Values are reported as the mean ± SD of two independent experiments.

[3] = system: HeLa cells; experiment: cell viability MTT assay, HeLa; type: cell-based, human; details: Homo sapiens, HeLa, HeLa cervical cancer cells, mean ± SD of two experiments, read-out: HeLa antiproliferative activity IC50
Procedure: as §1, §2

[4] = system: A549 cells; experiment: cell viability MTT assay, A549; type: cell-based, human; details: Homo sapiens, A549, A549 lung adenocarcinoma cells, mean ± SD of two experiments, read-out: A549 antiproliferative activity IC50
Procedure: as §1, §2

[5] = aqueous kinetic solubility; type: physicochemical; details: PBS, pH 7.4, PBS pH 7.4, target 250 µM, 2.5% DMSO, 25°C
Procedure: 1. In vitro m etabolic stabili ty
In vitro microsomial stability. 10mM DMSO stock solution of test compound was pre-incubated at 37 °C for 15min with mouse liver microsomes added 0.1M Tris-HCl buffer (pH 7.4). The final concentration was 4.6µM. After pre -incubation, the co-factors (NADPH, G6P, G6PDH and MgCl2 pre-dissolved in 0.1M Tris-HCl) were added to the incubation mixture and the incubation was continued at 37 °C for 1h. At each time point (0, 5, 15, 30, 60min), 30µL of incubation mixture was diluted with 200µL cold CH 3CN spiked with 200n M of internal standard, followed by centrifugation at 3500g for 15min. The supernatant was further diluted with H2O (1:1) for analysis. The concentration of test compound was quantified by LC/MS-MS on a Waters ACQUITY UPLC/M S TQD system consisting of a TQD (Triple Quadrupole Detector) Mass Spectrometer equipped with an Electrospray Ionization interface. The analyses were run on an ACQUITY UPLC BEH C18 (50x2.1mmID, particle size 1.7µm) with a VanGuard BEH C18 pre -column (5x2.1mmID, particle size 1.7µm) at 40°C, using 0.1% HCOOH in H 2O (A) and 0.1% HCOOH in CH 3CN (B) as mobile phase. Electrospray ionization (ESI) was app lied in positive mode . The percentage of test compound remaining at each time point relative to t=0 was calculated. The half -lives (t½) were determined by an one-phase decay equation using a non -linear regression of compound concentration versus time.
In vitro Plasma Stability. 10mM DMSO stock solution of test compound was diluted 50 -fold with DMSO-H2O (1:1) and incubated at 37 °C for 2 h with mouse plasma added 5% DMSO (pre-heated at 37 °C for 10 min). The final concentration was 2µM. At each time point (0, 5, 15, 30, 60, 120min), 50 µL of incubation mixture was diluted with 200µL cold CH3CN spiked with 200nM of internal standard, followed by centrifugation at 3500g for 20min. The supernatant was further diluted with H2O (1:1) for analysis. The concentration of test compound was quantified by LC/MS-MS on a Waters ACQUITY UPLC/MS TQD system consisting of a TQD (Triple Quadrupole Detector) Mass Spectrometer equipped with an Electrospray Ionization interface. The analyses were run on an ACQUITY UPLC BEH C18 (50x2.1mmID, particle size 1.7µm) with a VanGuard BEH C18 pre - column (5x2.1mmID, particle size 1.7µm) at 40°C, using 0.1% HCOOH in H2O (A) and 0.1% HCOOH in CH3CN (B) as mobile phase. Electrospray ionization (ESI) was applied in positive mode.
The response factors, calculated on the basis of the internal standard peak area, were plotted over time. When possible, response vs. time profiles were fitted with Prism (GraphPad Software, Inc., USA) to estimate compounds half-life in plasma.
2. Aqueous ki netic solu bili ty
The aqueous kinetic solubility was determined from a 10mM DMSO stock solution of test compound in Phosphate Buffered Saline (PBS) at pH 7.4. The study was performed by incubation of an aliquot of 10mM DMSO stock solution in PBS (pH 7.4) at a target concentration of 250µM resulting in a final concentration of 2.5% DMSO. The incubation was carried out under shaking at 25°C for 24h followed by centrifugation at 21.100g for 30min. The supernatant was analyzed by UPLC/MS for the quantification of dissolved compound by UV at a specific wavelength (215nm).
The analyses were performed on a Waters ACQUITY UPLC/MS SQD system consisting of a SQD (Single Quadrupole Detector) Mass Spectrometer equipped with Electrospray Ionization interface.
The analyses were run on an ACQUITY UPLC BEH C18 column (50x2.1mmID, particle size 1.7µm) with a VanGuard BEH C18 pre-column (5x2.1mmID, particle size 1.7µm), using 10mM NH4OAc in H2O at pH 5 adjusted with AcOH (A) and 10mM NH4OAc in MeCN-H2O (95:5) at pH 5 (B) as […]

[6] = biological target: T2, topoII/DNA cleavage complex (Homo sapiens, UniProt P11388); experiment: topoisomerase II cleavage complex assay; type: biochemical; details: 200 μM compound, 1 U topoII, plasmid DNA
T2 construct: purchased Inspiralis
T2 sequence (P11388 whole entry, one chain of several): as the sequence (P11388 whole entry) above
Procedure: Figure 2 Poison activity of the hybrid compounds. Agarose gel electrophoresis of plasmid DNA incubated in the absence (no enzyme) or presence of 1 U of topoII containing either 1% DMSO as control vehicle (no enzyme and topoII lanes) or 200 μM compound. Labels are shown above each lane. Numbers at the bottom correspond to the normalized intensity of the linear form (FIII). Plasmid forms are indicated by the arrow-points on the right: supercoiled (FI), nicked (FII), and linear (FIII).
Poison activity of the compounds was evaluated using a cleavage complex assay (Inspiralis) as described previously.[60] Compounds were tested at a fixed concentration of 200 μM in the presence of 1 U of topoisomerase II and 500 ng of […] plasmid at 37 °C for 6 min. Final DMSO concentration in the assay was 1%. Reaction products were subjected to electrophoresis in a 1% agarose gel, stained with SYBR Safe DNA stain, and DNA bands were visualized and quantified as described above.

[7] = system: human topoII; parameters: method as in PMID 29077404; details: earlier values of the same authors; read-out: IC50 topoII blocker; cited from earlier work
[8] = system: DU145 cells; parameters: method as in PMID 29077404; details: etoposide and merbarone measured in ref 39, read-out: DU145 antiproliferative activity IC50; cited from earlier work
[9] = system: HeLa cells; parameters: method as in PMID 29077404; details: etoposide and merbarone measured in ref 39, read-out: HeLa antiproliferative activity IC50; cited from earlier work
[10] = system: A549 cells; parameters: method as in PMID 29077404; details: etoposide and merbarone measured in ref 39, read-out: A549 antiproliferative activity IC50; cited from earlier work

SMILES	IC50 [1] [µM]	IC50 [2] [µM]	IC50 [3] [µM]	IC50 [4] [µM]	solubility kinetic at 24 h [5] [µM]	mode of action in cleavage complex formation assay [6]	IC50 [7] [µM]	IC50 [8] [µM]	IC50 [9] [µM]	IC50 [10] [nM]
O=C(Nc1cccc(OC(F)F)c1)c1c(O)n(-c2ccccc2)c(=S)n(-c2ccccc2)c1=O [3g, N-(3-(Difluoromethoxy)phenyl)-6-hydroxy-4-oxo-1,3-diphenyl-2-thioxo-1,2,3,4-tetrahydropyrimidine-5-carboxamide]	10.2 ± 1.9	6.5 ± 0.9	6.4 ± 0.5	4.8 ± 0.4	> 200	confirmed to be poisons	–	–	–	–
O=C(Nc1cccc(C(F)F)c1)c1c(O)n(-c2ccccc2)c(=S)n(-c2ccccc2)c1=O [3i, N-(3-(Difluoromethyl)phenyl)-6-hydroxy-4-oxo-1,3-diphenyl-2-thioxo-1,2,3,4-tetrahydropyrimidine-5-carboxamide]	11.4 ± 2.4	7.8 ± 0.2	4.9 ± 1.4	4.4 ± 0.2	> 200	confirmed to be poisons	–	–	–	–
COc1cccc(NC(=O)c2c(O)n(-c3ccccc3)c(=S)n(-c3ccccc3)c2=O)c1 [ARN16267]	16.1 ± 2.4	7.6 ± 0.8	5.5 ± 1.3	4.7 ± 0.3	236 (≈ 105 µg/mL)	–	30 ± 6	–	–	–
COc1cc([C@@H]2c3cc4c(cc3[C@@H](O[C@@H]3O[C@@H]5CO[C@@H](C)O[C@H]5[C@H](O)[C@H]3O)[C@H]3COC(=O)[C@H]23)OCO4)cc(OC)c1O [etoposide]	–	–	–	–	–	–	[…]	[…]	2.4 ± 0.9	[…]
O=C1NC(=S)NC(=O)C1C(=O)Nc1ccccc1 [merbarone, 6-hydroxy-4-oxo-N-phenyl-2-thioxo-1H-pyrimidine-5-carboxamide]	26 ± 4.7	–	–	–	–	–	120 ± 12	18.9 ± 2	62.3 ± 6.4	–
